Measurements from patent US20080103048A1, “Methods for the production of granular composite pesticidal compositions and the compositions produced thereby” (priority 2006, published 2008).

Test: Solubility of non-cyano containing pyrethroids in non-polar solvents
Format: physicochemical
Method: Specifically, samples were prepared in 4 ounce glass bottles by combining the non-cyano containing pyrethroids Bifenthrin Technical (supplied by FMC Corporation) and Permethrin Technical sold by Gharda USA, Inc with various non-polar solvents at 10%, 25% and 50% rates by mass (total mass of each sample being 40 grams) so that the 10% formulation contained 4 g of the pyrethroid and 36 g solvent; the 25% formulation contained 10 g of the pyrethroid and 30 g solvent; and the 50% formulation contained 20 g of the pyrethroid and 20 g solvent. Each of the resulting solutions was stirred vigorously in the bottles until a clear solution was obtained. The initial temperatures of the solutions in each of bottles was recorded before the bottles were heated on a laboratory hot plate Each of the solutions was stirred constantly while the solution was being heated on the hot plate and the solutions were frequently observed for signs of any visible separation between the solvent and the solute. […] The final temperature of the solutions in each of the bottles was recorded and it was noted that the temperature required to achieve full miscibility of the pyrethroids in the solvents was up to about 80° C.
In the following Table III, each of the non-cyano containing pyrethroids that were tested and each of the non-polar solvents which were employed with such pyrethroids are listed as well as the initial temperature of the solution and the final temperature resulting in full miscibility of the components.

[1] = Canola Oil (Stepsol ROW-W), 10% pyrethroid by mass
[2] = Canola Oil (Stepsol ROW-W), 25% pyrethroid by mass
[3] = Canola Oil (Stepsol ROW-W), 50% pyrethroid by mass
[4] = Polybutene H-7, 10% pyrethroid by mass
[5] = Polybutene H-7, 25% pyrethroid by mass
[6] = Polybutene H-7, 50% pyrethroid by mass
[7] = Polybutene H-8, 10% pyrethroid by mass
[8] = Polybutene H-8, 25% pyrethroid by mass
[9] = Polybutene H-8, 50% pyrethroid by mass
[10] = Polybutene L-14, 10% pyrethroid by mass
[11] = Polybutene L-14, 25% pyrethroid by mass
[12] = Polybutene L-14, 50% pyrethroid by mass
[13] = Polybutene L-50, 10% pyrethroid by mass
[14] = Polybutene L-50, 25% pyrethroid by mass
[15] = Polybutene L-50, 50% pyrethroid by mass
[16] = Safflower Oil, 10% pyrethroid by mass
[17] = Safflower Oil, 25% pyrethroid by mass
[18] = Safflower Oil, 50% pyrethroid by mass

Row | Compound | Final Temp. (resulting in full miscibility) [1] | Final Temp. (resulting in full miscibility) [2] | Final Temp. (resulting in full miscibility) [3] | Final Temp. (resulting in full miscibility) [4] | Final Temp. (resulting in full miscibility) [5] | Final Temp. (resulting in full miscibility) [6] | Final Temp. (resulting in full miscibility) [7] | Final Temp. (resulting in full miscibility) [8] | Final Temp. (resulting in full miscibility) [9] | Final Temp. (resulting in full miscibility) [10] | Final Temp. (resulting in full miscibility) [11] | Final Temp. (resulting in full miscibility) [12] | Final Temp. (resulting in full miscibility) [13] | Final Temp. (resulting in full miscibility) [14] | Final Temp. (resulting in full miscibility) [15] | Final Temp. (resulting in full miscibility) [16] | Final Temp. (resulting in full miscibility) [17] | Final Temp. (resulting in full miscibility) [18] | solubility and stability in polybutene L-14 (over a range of concentrations)
1 | Cc1c(COC(=O)[C@H]2[C@@H](/C=C(/Cl)C(F)(F)F)C2(C)C)cccc1-c1ccccc1 [Bifenthrin Tech., bifenthrin] | 45 °C | 57 °C | 74 °C | 45 °C | 41 °C | 41 °C | 37 °C | 50 °C | 36 °C | 30 °C | 40 °C | 43 °C | 37 °C | 35 °C | 43 °C | 80 °C | 80 °C | 80 °C | soluble and stable
2 | CC1(C)C(C=C(Cl)Cl)C1C(=O)OCc1cccc(Oc2ccccc2)c1 (stereo not shown) [Permethrin Tech., permethrin] | 26 °C | 27 °C | 30 °C | 29 °C | 33 °C | 50 °C | 51 °C | 54 °C | 62 °C | 26 °C | 28 °C | 31 °C | 35 °C | 51 °C | 54 °C | 80 °C | 80 °C | 80 °C | –
